Data reported in ChEMBL document CHEMBL1201862, “PubChem BioAssay data set” (2004).
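Cells were grown in 96-well plates and exposed to each compound for 48 hours at five concentrations; endpoints were interpolated linearly between bracketing concentrations, or set to the highest concentration if not reached. GI50 marks 50% less growth.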 Activity calls are given as the source filed them. Rule as the data show it: active = GI50 up to about 1.1 µM and inactive = higher.

Legend:
Experiment in all cases: inhibition of tumour cell growth, NCI panel, 48 h
SK-MEL-2 = test system: SK-MEL-2
HCT-15 = test system: HCT-15
IGROV-1 = test system: IGROV-1
CCRF-CEM = test system: CCRF-CEM
LXFL 529 = test system: LXFL 529
BT-549 = test system: BT-549
XF498 = test system: XF498
UACC-257 = test system: UACC-257
SF-295 = test system: SF-295
MDA-N = test system: MDA-N
OVCAR-3 = test system: OVCAR-3
K562 = test system: K562
KM12 = test system: KM12
SNB-75 = test system: SNB-75
U-251 = test system: U-251
SF-539 = test system: SF-539
RXF 393 = test system: RXF 393
SNB-78 = test system: SNB-78
786-0 = test system: 786-0
UO-31 = test system: UO-31
DMS-273 = test system: DMS-273
DLD-1 = test system: DLD-1
CAKI-1 = test system: CAKI-1
OVCAR-5 = test system: OVCAR-5
HOP-18 = test system: HOP-18
A498 = test system: A498
KM-20L2 = test system: KM-20L2
PC-3 = test system: PC-3
SR = test system: SR
DU-145 = test system: DU-145
SK-MEL-28 = test system: SK-MEL-28
HOP-62 = test system: HOP-62
SK-MEL-5 = test system: SK-MEL-5
OVCAR-4 = test system: OVCAR-4
SW-620 = test system: SW-620
M14 = test system: M14
NCI-H23 = test system: NCI-H23
MOLT-4 = test system: MOLT-4
SNB-19 = test system: SNB-19
Malme-3M = test system: Malme-3M
SF-268 = test system: SF-268
TK-10 = test system: TK-10
A549 = test system: A549
LOX IMVI = test system: LOX IMVI
HL-60 = test system: HL-60
T47D = test system: T47D
EKVX = test system: EKVX
NCI-H460 = test system: NCI-H460
SN12C = test system: SN12C
COLO 205 = test system: COLO 205
NCI-H226 = test system: NCI-H226
NCI-H522 = test system: NCI-H522
MDA-MB-231 = test system: MDA-MB-231
HT-29 = test system: HT-29
ACHN = test system: ACHN
HCC 2998 = test system: HCC 2998
Hs-578T = test system: Hs-578T
HCT-116 = test system: HCT-116
OVCAR-8 = test system: OVCAR-8
UACC-62 = test system: UACC-62
SK-OV-3 = test system: SK-OV-3
MDA-MB-435 = test system: MDA-MB-435
HOP-92 = test system: HOP-92
RPMI-8226 = test system: RPMI-8226
DMS-114 = test system: DMS-114
M19-MEL = test system: M19-MEL

Measured: GI50

COc1cccc2c1C(=O)c1c(O)c3c(c(O)c1C2=O)C[C@@](O)(C(=O)CO)C[C@@H]3OC1CC(N(C)C)C(O)C(C)O1 (stereo partly drawn)
active: SK-MEL-2 < 21.2 nM | IGROV-1 < 10.4 nM | CCRF-CEM 99.1 nM | LXFL 529 < 17.4 nM | BT-549 53.7 nM | XF498 14.9 nM | UACC-257 28.5 nM | SF-295 < 10 nM | MDA-N < 10 nM | OVCAR-3 64.4 nM | K562 58.3 nM | KM12 < 16 nM | SNB-75 15.5 nM | U-251 < 13.4 nM | SF-539 < 10 nM | RXF 393 13.8 nM | SNB-78 45.3 nM | 786-0 < 19.7 nM | UO-31 20.4 nM | DMS-273 < 10.6 nM | DLD-1 < 15.7 nM | CAKI-1 < 10 nM | OVCAR-5 64.3 nM | HOP-18 80.5 nM | A498 < 11.6 nM | KM-20L2 36.7 nM | PC-3 < 10 nM | SR < 10 nM | DU-145 51.9 nM | SK-MEL-28 22.7 nM | HOP-62 27.2 nM | SK-MEL-5 12.9 nM | OVCAR-4 < 18.9 nM | SW-620 < 10 nM | M14 30.6 nM | NCI-H23 13.7 nM | MOLT-4 15.9 nM | SNB-19 25.4 nM | Malme-3M < 14.2 nM | SF-268 < 12.6 nM | TK-10 30.3 nM | A549 < 10 nM | LOX IMVI < 10 nM | HL-60 100 nM | T47D < 10 nM | EKVX 41.5 nM | NCI-H460 < 10 nM | SN12C 18.9 nM | COLO 205 < 10 nM | NCI-H226 < 14.9 nM | NCI-H522 < 11 nM | MDA-MB-231 52.8 nM | HT-29 < 10 nM | ACHN < 10 nM | HCC 2998 67.5 nM | Hs-578T < 10 nM | HCT-116 < 10 nM | OVCAR-8 < 25.5 nM | UACC-62 < 12 nM | SK-OV-3 72.8 nM | MDA-MB-435 < 10 nM | HOP-92 31 nM | RPMI-8226 < 17.5 nM
18.2 nM: HCT-15

Cc1ccc(S(=O)(=O)OC(c2ccc(Cl)cc2Cl)C2OC(=O)c3ccccc32)cc1 (stereo not drawn)
56500 nM: HCT-15
inactive: SK-MEL-2 73600 nM | IGROV-1 97300 nM | CCRF-CEM 34800 nM | LXFL 529 > 100000 nM | XF498 > 100000 nM | SF-295 90200 nM | OVCAR-3 40400 nM | K562 33600 nM | KM12 36000 nM | U-251 56400 nM | SF-539 73600 nM | RXF 393 67100 nM | SNB-78 > 100000 nM | 786-0 > 100000 nM | UO-31 27400 nM | DMS-273 75500 nM | DMS-114 45800 nM | OVCAR-5 > 100000 nM | KM-20L2 32700 nM | SR 30600 nM | SK-MEL-28 > 100000 nM | HOP-62 > 100000 nM | M19-MEL > 100000 nM | SK-MEL-5 53100 nM | OVCAR-4 47500 nM | SW-620 71400 nM | M14 > 100000 nM | NCI-H23 > 100000 nM | MOLT-4 30200 nM | SNB-19 42700 nM | Malme-3M > 100000 nM | SF-268 51300 nM | TK-10 > 100000 nM | A549 68500 nM | LOX IMVI > 100000 nM | HL-60 21400 nM | EKVX > 100000 nM | NCI-H460 35800 nM | SN12C > 100000 nM | COLO 205 83200 nM | NCI-H226 19700 nM | NCI-H522 57900 nM | HT-29 38600 nM | ACHN > 100000 nM | HCT-116 30800 nM | OVCAR-8 > 100000 nM | UACC-62 53800 nM | RPMI-8226 36700 nM
